Measured values: PubChem BioAssay AID1963425 (Molecular Pharmacology Branch, DTP, NCI, 2024)

System: 323965-272-R-J2-PDC complex spheroid growth, % test/control
Assay: Anticancer human tumor 323965-272-R-J2-PDC patient-derived pancreatic carcinoma cell line growth inhibition [Asc]
Conditions: for IC50: curve of first compound; for viability, T/C: stronger effect = lower value; active = viability on the fitted dose curve at most 10% of control; inactive = the rest
Procedure, shortened: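 Complex spheroids combining tumor cells with HUVEC endothelial cells and human MSCs, at 37 degrees C, 5% CO2; agents tested alone or combined, half-log dilutions from at or near clinical Cmax, or 10 microM if Cmax unknown.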

[1] = second compound 0.0316 µM, first compound 0.00316 µM
[2] = second compound 0.0316 µM, first compound 0.01 µM
[3] = second compound 0.0316 µM, first compound 0.0316 µM
[4] = second compound 0.0316 µM, first compound 0.1 µM
[5] = second compound 0.0316 µM, first compound 0.316 µM
[6] = second compound 0.0316 µM, first compound 1 µM
[7] = second compound 0.1 µM, first compound 0.00316 µM
[8] = second compound 0.1 µM, first compound 0.01 µM
[9] = second compound 0.1 µM, first compound 0.0316 µM
[10] = second compound 0.1 µM, first compound 0.1 µM
[11] = second compound 0.1 µM, first compound 0.316 µM
[12] = second compound 0.1 µM, first compound 1 µM
[13] = second compound 0.316 µM, first compound 0.00316 µM
[14] = second compound 0.316 µM, first compound 0.01 µM
[15] = second compound 0.316 µM, first compound 0.0316 µM
[16] = second compound 0.316 µM, first compound 0.1 µM
[17] = second compound 0.316 µM, first compound 0.316 µM
[18] = second compound 0.316 µM, first compound 1 µM
[19] = second compound 1 µM, first compound 0.00316 µM
[20] = second compound 1 µM, first compound 0.01 µM
[21] = second compound 1 µM, first compound 0.0316 µM
[22] = second compound 1 µM, first compound 0.1 µM
[23] = second compound 1 µM, first compound 0.316 µM
[24] = second compound 1 µM, first compound 1 µM
[25] = second compound 3.16 µM, first compound 0.00316 µM
[26] = second compound 3.16 µM, first compound 0.01 µM
[27] = second compound 3.16 µM, first compound 0.0316 µM
[28] = second compound 3.16 µM, first compound 0.1 µM
[29] = second compound 3.16 µM, first compound 0.316 µM
[30] = second compound 3.16 µM, first compound 1 µM
[31] = second compound 10 µM, first compound 0.00316 µM
[32] = second compound 10 µM, first compound 0.01 µM
[33] = second compound 10 µM, first compound 0.0316 µM
[34] = second compound 10 µM, first compound 0.1 µM
[35] = second compound 10 µM, first compound 0.316 µM
[36] = second compound 10 µM, first compound 1 µM
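Note: compound exposure lasted 7 days starting three days after spheroid seeding.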
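Throughout, for viability, T/C: 100% = DMSO vehicle control wells with viability set relative to vehicle.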

CCN1CCN(Cc2ccc(Nc3ncc(F)c(-c4cc(F)c5nc(C)n(C(C)C)c5c4)n3)nc2)CC1 + Cc1c(S(C)(=O)=O)c(-c2cc(F)cc(N3CCN(c4ccc(NS(=O)(=O)c5ccc(NC(CCN6CCC(C(=O)OCCCP(=O)(O)O)CC6)CSc6ccccc6)c(S(=O)(=O)C(F)(F)F)c5)cc4)CC3)c2)c(-c2ccc(Cl)cc2)n1C(C)C
> 1000 nM: IC50 (second compound 0.0316 µM) | IC50 (second compound 0.1 µM) | IC50 (second compound 0.316 µM) | IC50 (second compound 1 µM) | IC50 (second compound 3.16 µM) | IC50 (second compound 10 µM)
inactive: viability, T/C [1] 110% | viability, T/C [2] 98.8% | viability, T/C [3] 106% | viability, T/C [4] 90.4% | viability, T/C [5] 70.5% | viability, T/C [6] 67.7% | viability, T/C [7] 102% | viability, T/C [8] 109% | viability, T/C [9] 95.1% | viability, T/C [10] 82.5% | viability, T/C [11] 70.7% | viability, T/C [12] 73.6% | viability, T/C [13] 103% | viability, T/C [14] 102% | viability, T/C [15] 100% | viability, T/C [16] 81% | viability, T/C [17] 72.5% | viability, T/C [18] 78.1% | viability, T/C [19] 102% | viability, T/C [20] 93.1% | viability, T/C [21] 84.2% | viability, T/C [22] 76.6% | viability, T/C [23] 72.8% | viability, T/C [24] 70.3% | viability, T/C [25] 83.9% | viability, T/C [26] 86.2% | viability, T/C [27] 77.8% | viability, T/C [28] 65.8% | viability, T/C [29] 67.5% | viability, T/C [30] 61.2% | viability, T/C [31] 76.4% | viability, T/C [32] 74.4% | viability, T/C [33] 64.1% | viability, T/C [34] 66.5% | viability, T/C [35] 71.3% | viability, T/C [36] 70.3%

Cn1ncnc1[C@H]1c2n[nH]c(=O)c3cc(F)cc(c23)N[C@@H]1c1ccc(F)cc1 + Cc1c(S(C)(=O)=O)c(-c2cc(F)cc(N3CCN(c4ccc(NS(=O)(=O)c5ccc(NC(CCN6CCC(C(=O)OCCCP(=O)(O)O)CC6)CSc6ccccc6)c(S(=O)(=O)C(F)(F)F)c5)cc4)CC3)c2)c(-c2ccc(Cl)cc2)n1C(C)C
inactive: viability, T/C (second compound 0.0316 µM, first compound 0.000316 µM) 105% | viability, T/C (second compound 0.0316 µM, first compound 0.001 µM) 92.2% | viability, T/C [1] 105% | viability, T/C [2] 96.2% | viability, T/C [3] 95.3% | viability, T/C [4] 86.4% | viability, T/C (second compound 0.1 µM, first compound 0.000316 µM) 86.4% | viability, T/C (second compound 0.1 µM, first compound 0.001 µM) 102% | viability, T/C [7] 97.9% | viability, T/C [8] 104% | viability, T/C [9] 95.4% | viability, T/C [10] 92.7% | viability, T/C (second compound 0.316 µM, first compound 0.000316 µM) 94.8% | viability, T/C (second compound 0.316 µM, first compound 0.001 µM) 99.7% | viability, T/C [13] 100% | viability, T/C [14] 84.2% | viability, T/C [15] 96.7% | viability, T/C [16] 80.5% | viability, T/C (second compound 1 µM, first compound 0.000316 µM) 96.5% | viability, T/C (second compound 1 µM, first compound 0.001 µM) 89.3% | viability, T/C [19] 88.8% | viability, T/C [20] 87.2% | viability, T/C [21] 84.3% | viability, T/C [22] 66.5% | viability, T/C (second compound 3.16 µM, first compound 0.000316 µM) 86.6% | viability, T/C (second compound 3.16 µM, first compound 0.001 µM) 76.2% | viability, T/C [25] 80.3% | viability, T/C [26] 75.4% | viability, T/C [27] 70% | viability, T/C [28] 64.5% | viability, T/C (second compound 10 µM, first compound 0.000316 µM) 81.5% | viability, T/C (second compound 10 µM, first compound 0.001 µM) 73.4% | viability, T/C [31] 71.8% | viability, T/C [32] 69.1% | viability, T/C [33] 71.1% | viability, T/C [34] 59.6%
> 100 nM: IC50 (second compound 0.0316 µM) | IC50 (second compound 0.1 µM) | IC50 (second compound 0.316 µM) | IC50 (second compound 1 µM) | IC50 (second compound 3.16 µM) | IC50 (second compound 10 µM)

O=C(c1cc(Cc2n[nH]c(=O)c3ccccc23)ccc1F)N1CCN(C(=O)C2CC2)CC1 + Cc1c(S(C)(=O)=O)c(-c2cc(F)cc(N3CCN(c4ccc(NS(=O)(=O)c5ccc(NC(CCN6CCC(C(=O)OCCCP(=O)(O)O)CC6)CSc6ccccc6)c(S(=O)(=O)C(F)(F)F)c5)cc4)CC3)c2)c(-c2ccc(Cl)cc2)n1C(C)C
> 10000 nM: IC50 (second compound 0.0316 µM) | IC50 (second compound 0.1 µM) | IC50 (second compound 0.316 µM) | IC50 (second compound 1 µM) | IC50 (second compound 3.16 µM) | IC50 (second compound 10 µM)
inactive: viability, T/C [3] 87.5% | viability, T/C [4] 92.7% | viability, T/C [5] 95.7% | viability, T/C [6] 98.9% | viability, T/C (second compound 0.0316 µM, first compound 3.16 µM) 98.3% | viability, T/C (second compound 0.0316 µM, first compound 10 µM) 89% | viability, T/C [9] 103% | viability, T/C [10] 93% | viability, T/C [11] 98.1% | viability, T/C [12] 91.2% | viability, T/C (second compound 0.1 µM, first compound 3.16 µM) 95% | viability, T/C (second compound 0.1 µM, first compound 10 µM) 88.2% | viability, T/C [15] 92.4% | viability, T/C [16] 90.5% | viability, T/C [17] 92.8% | viability, T/C [18] 87.7% | viability, T/C (second compound 0.316 µM, first compound 3.16 µM) 91.6% | viability, T/C (second compound 0.316 µM, first compound 10 µM) 74.7% | viability, T/C [21] 85.6% | viability, T/C [22] 79.3% | viability, T/C [23] 83.8% | viability, T/C [24] 84.2% | viability, T/C (second compound 1 µM, first compound 3.16 µM) 80.8% | viability, T/C (second compound 1 µM, first compound 10 µM) 72.2% | viability, T/C [27] 85.9% | viability, T/C [28] 76.5% | viability, T/C [29] 78.6% | viability, T/C [30] 74.2% | viability, T/C (second compound 3.16 µM, first compound 3.16 µM) 78.4% | viability, T/C (second compound 3.16 µM, first compound 10 µM) 60.2% | viability, T/C [33] 72.4% | viability, T/C [34] 75.2% | viability, T/C [35] 64.9% | viability, T/C [36] 71.1% | viability, T/C (second compound 10 µM, first compound 3.16 µM) 81.1% | viability, T/C (second compound 10 µM, first compound 10 µM) 51.8%

O=C(c1ccc(F)c(F)c1Nc1ccc(I)cc1F)N1CC(O)([C@@H]2CCCCN2)C1 + Cc1c(S(C)(=O)=O)c(-c2cc(F)cc(N3CCN(c4ccc(NS(=O)(=O)c5ccc(NC(CCN6CCC(C(=O)OCCCP(=O)(O)O)CC6)CSc6ccccc6)c(S(=O)(=O)C(F)(F)F)c5)cc4)CC3)c2)c(-c2ccc(Cl)cc2)n1C(C)C
inactive: viability, T/C [1] 91% | viability, T/C [2] 89.6% | viability, T/C [3] 77.3% | viability, T/C [4] 54.5% | viability, T/C [5] 35.2% | viability, T/C [6] 16.4% | viability, T/C [7] 115% | viability, T/C [8] 103% | viability, T/C [9] 76.5% | viability, T/C [10] 59.6% | viability, T/C [11] 30% | viability, T/C [12] 15.1% | viability, T/C [13] 98.2% | viability, T/C [14] 98.7% | viability, T/C [15] 68.1% | viability, T/C [16] 47.4% | viability, T/C [17] 21.9% | viability, T/C [18] 10.4% | viability, T/C [19] 88.8% | viability, T/C [20] 70.5% | viability, T/C [21] 61.5% | viability, T/C [22] 40.3% | viability, T/C [23] 16.7% | viability, T/C [25] 82% | viability, T/C [26] 63.5% | viability, T/C [27] 52.6% | viability, T/C [28] 28.2% | viability, T/C [29] 10.3% | viability, T/C [31] 78.6% | viability, T/C [32] 66.5% | viability, T/C [33] 39.3% | viability, T/C [34] 22.3%
51.8 nM: IC50 (second compound 1 µM)
81.6 nM: IC50 (second compound 0.316 µM)
20.9 nM: IC50 (second compound 10 µM)
133 nM: IC50 (second compound 0.1 µM)
active: viability, T/C [24] 7.35% | viability, T/C [30] 3.52% | viability, T/C [35] 7.23% | viability, T/C [36] 3.38%
139 nM: IC50 (second compound 0.0316 µM)
29.6 nM: IC50 (second compound 3.16 µM)
